Test results: patent publication US4235893A, “Ester derivatives of 4-hydroxy-4-androstene-3,17-dione and a method for inhibiting estrogen biosynthesis” (priority 1978, dated 1980)

Legend:
estrogen biosynthesis [1] = assay: In vivo inhibition of estrogen biosynthesis; set-up: species or system rat
estrogen biosynthesis [2] = assay: In vitro inhibition of estrogen biosynthesis; type: biochemical
estrogen biosynthesis [3] = conditions: Endocrinology 92, 866 (1973); Endocrinology 100, 1684 (1977); cited from earlier work
[4] = Release of compound from skin implant in rat studies; type: in vivo
[5] = Polarity by thin layer chromatography; type: physicochemical; conditions: compared with 4-acetate-4-A
[6] = system: Estrogen-dependent mammary tumors; assay: In vivo effect on DMBA-induced estrogen-dependent mammary tumors in rats; set-up: species or system rat; conditions: after 4 weeks, wafer with 150 mg plus sc 2.5 mg/100 g twice daily
Protocol: Estrogen-dependent mammary tumors where induced in rats with DMBA. Prior to treatment the 7 sample group rats had 23 tumors; the 6 control group rats had 17 tumors. During the initial treatment period the number of tumors increased to 28 for the sample group, 24 for the control group.
The sample group was treated with implanted wafers containing 0.5 g silastic and 150 mg 4-acetate-4-A. The sample group was also treated twice daily for 4 weeks with sc injections of 4-acetate-4-A (2.5 mg/100 g animal) in a suspending vehicle. The control was treated the same except that 4-acetate-4-A was omitted from the wafers and the injection.

mating in rats = assay: In vivo effect on mating in rats (silastic wafer implant); set-up: species or system rat; conditions: 8 female rats
Protocol: Female rats showing at least 2 consecutive 4-day cycles were used. On the day of diestrus I, a silastic wafer, was inserted under the dorsal skin of each rat. The wafer, about 25 mm in diameter and 1 mm thick, was prepared by polymerizing 0.5 g of Corning medical grade Silastic 382 with 75 mg 4-acetate-4-A, using stannous octoate catalyst. Each female was housed with 2 fertile males until mating occurred. Control animals were treated with same except that 4-acetate-4-A was omitted from the wafer.

[7] = system: implantation in mated rats; assay: In vivo effect on implantation in mated rats; set-up: species or system rat; conditions: 7 mated rats; 100 mg/kg daily by injection from Day 2 of pregnancy
Protocol: Injections of 4-acetate-4-A in a suspending vehicle were begun at 0800 hr on Day 2 of pregnancy, and repeated thereafter at […], and at 2400 hr as 2/6 daily dose. The daily does was 100 mg of 4-acetate-4-A per kg of body weight. Control animals were treated the same except that only the suspending vehicle was injected.

CC12CCC3C(CCC4=C(OC(=O)CCC(=O)O)C(=O)CCC43C)C1CCC2=O (stereo not shown) [4-hemisuccinate-4-A]
ability to inhibit estrogen biosynthesis (in vivo) (estrogen biosynthesis [1]; in vivo): marked ability to inhibit estrogen biosynthesis
ability to inhibit estrogen biosynthesis (in vitro) (estrogen biosynthesis [2]): marked ability to inhibit estrogen biosynthesis

C[C@]12CCC(=O)C=C1C(=O)C[C@@H]1[C@@H]2CC[C@]2(C)C(=O)CC[C@@H]12 (stereo in doubt) [4-androstene-3,6,17-trione]
inhibition of estrogen biosynthesis (literature) (estrogen biosynthesis [3]): effective inhibitors of estrogen biosynthesis

C[C@]12CCC(=O)C(O)=C1CC[C@@H]1[C@@H]2CC[C@]2(C)C(=O)CC[C@@H]12 [4-OH-4-A, 4-hydroxy-4-androstene-3,17-dione]
diffusion / release from skin implant [4]: does not diffuse as well from the implant
inhibition of estrogen biosynthesis (literature) (estrogen biosynthesis [3]): effective inhibitor of estrogen biosynthesis
polarity (thin layer chromatography) [5]: less polar than 4-acetate-4-A

CC(=O)OC1=C2CCC3C4CCC(=O)C4(C)CCC3C2(C)CCC1=O (stereo not shown) [4-acetate-4-A]
tumors completely regressed [6]: 64%
tumors regressed to less than 1/2 their pretreatment size ([6]; in addition to those completely regressed): 32%
Number of animals mating on a given day: 1st (mating in rats; 1st day, silastic wafer with 75 mg 4-acetate-4-A under dorsal skin): 0
Number of animals mating on a given day: 6th (mating in rats; 6th day, silastic wafer with 75 mg): 2
Number of animals mating on a given day: 7th (mating in rats; 7th day, silastic wafer with 75 mg): 2
Number of animals mating on a given day: 15th day (mating in rats; 15th day, silastic wafer with 75 mg): 3
Number of animals mating on a given day: 2d (mating in rats; 2d day, silastic wafer with 75 mg): 1
diffusion / release from skin implant [4]: continuous, uniform release
ovarian estrogen secretion (estrogen biosynthesis [1]; in vivo rat studies): lower ovarian estrogen secretion
Animals without implants [7]: 4
Average number of normal-sized implants/animal [7]: 1.7
Average number of small (<2.4 mm) implants/animal [7]: 1.4
Number of animals affected by treatment [7]: 7

CCCCCCC(=O)OC1=C2CCC3C4CCC(=O)C4(C)CCC3C2(C)CCC1=O (stereo not shown) [4-heptanoate-4-A]
ability to inhibit estrogen biosynthesis (in vitro) (estrogen biosynthesis [2]): This expectation has been borne out

C[C@]12CC[C@H]3[C@@H](CCC4=CC(=O)CC[C@@H]43)[C@@H]1CCC2=O [4-estrene-3,17-dione]
inhibition of estrogen biosynthesis (literature) (estrogen biosynthesis [3]): effective inhibitors of estrogen biosynthesis

C[C@]12C=CC(=O)C=C1C=C[C@@H]1[C@@H]2CC[C@]2(C)C(=O)CC[C@@H]12 [1,4,6-androstatriene-3,17-dione]
inhibition of estrogen biosynthesis (literature) (estrogen biosynthesis [3]): effective inhibitors of estrogen biosynthesis
